Test results published in article PMC6658782, “The Novel Arylamidine T-2307 Selectively Disrupts Yeast Mitochondrial Function by Inhibiting Respiratory Chain Complexes” (Antimicrobial Agents and Chemotherapy, 2019).
Values after ≈ are worked out from the molar mass of the structure shown.

Legend:
[1] = target: respiratory chain complex II (Saccharomyces cerevisiae, UniProt P21801+P33421+P37298+Q00711); assay: Respiratory chain enzymatic activity, complex II, S. cerevisiae; assay type: biochemical
Chain of respiratory chain complex II (P21801 21-266): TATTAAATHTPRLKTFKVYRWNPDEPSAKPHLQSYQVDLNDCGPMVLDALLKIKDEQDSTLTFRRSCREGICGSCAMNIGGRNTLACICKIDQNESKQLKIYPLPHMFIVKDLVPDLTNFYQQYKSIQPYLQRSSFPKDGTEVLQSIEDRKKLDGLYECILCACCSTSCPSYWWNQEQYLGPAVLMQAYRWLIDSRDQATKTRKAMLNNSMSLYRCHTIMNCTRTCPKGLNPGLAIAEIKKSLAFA
Chain of respiratory chain complex II (P33421 51-198): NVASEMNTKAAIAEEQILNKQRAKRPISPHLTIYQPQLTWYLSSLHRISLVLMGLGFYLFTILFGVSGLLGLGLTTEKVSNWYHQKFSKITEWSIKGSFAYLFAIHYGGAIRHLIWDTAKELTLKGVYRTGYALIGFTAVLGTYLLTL
Chain of respiratory chain complex II (P37298 32-181): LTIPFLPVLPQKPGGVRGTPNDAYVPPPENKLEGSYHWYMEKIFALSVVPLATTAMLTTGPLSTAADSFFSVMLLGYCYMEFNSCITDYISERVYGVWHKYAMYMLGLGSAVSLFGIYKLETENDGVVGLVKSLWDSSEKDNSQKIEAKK
Chain of respiratory chain complex II (Q00711 29-640): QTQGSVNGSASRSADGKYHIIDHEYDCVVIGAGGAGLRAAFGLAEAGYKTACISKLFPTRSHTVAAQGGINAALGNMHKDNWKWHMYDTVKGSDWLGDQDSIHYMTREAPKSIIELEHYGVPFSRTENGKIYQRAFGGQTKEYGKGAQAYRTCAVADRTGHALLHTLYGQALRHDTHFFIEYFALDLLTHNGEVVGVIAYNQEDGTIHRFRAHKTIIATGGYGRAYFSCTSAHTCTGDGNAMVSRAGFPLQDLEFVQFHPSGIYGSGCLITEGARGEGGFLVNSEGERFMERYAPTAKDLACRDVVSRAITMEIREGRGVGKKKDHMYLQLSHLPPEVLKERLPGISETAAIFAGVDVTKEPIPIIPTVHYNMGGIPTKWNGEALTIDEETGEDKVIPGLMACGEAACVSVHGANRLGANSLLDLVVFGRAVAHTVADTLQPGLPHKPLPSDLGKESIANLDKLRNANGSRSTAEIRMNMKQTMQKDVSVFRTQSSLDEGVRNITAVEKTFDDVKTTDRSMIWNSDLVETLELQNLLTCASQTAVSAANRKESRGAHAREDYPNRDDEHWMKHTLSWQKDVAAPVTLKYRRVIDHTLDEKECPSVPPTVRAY

[2] = target: respiratory chain complex II + III (Saccharomyces cerevisiae, UniProt P00163+P07143+P08067); assay: Respiratory chain enzymatic activity, complexes II plus III, S. cerevisiae; assay type: biochemical
[3] = target: respiratory chain complex IV (Saccharomyces cerevisiae, UniProt P00401+P00410+P00420); assay: Respiratory chain enzymatic activity, complex IV, S. cerevisiae; assay type: biochemical
[4] = target: respiratory chain complex I (Candida albicans, UniProt Q9B8D6); assay: Respiratory chain enzymatic activity, complex I (rotenone-sensitive), C. albicans; assay type: biochemical; settings: read-out: IC50 ± SD, Complex I
[5] = target: NADH dehydrogenase; assay: NADH dehydrogenase activity, C. albicans; assay type: biochemical, Candida albicans; settings: C. albicans mitochondria; involves complex I activity; read-out: IC50 against NADH dehydrogenase activity
[6] = target: respiratory chain complex IV (Candida albicans, UniProt P0C8K9+Q9B1P9+Q9B8D8); assay: Respiratory chain enzymatic activity, complex IV, C. albicans; assay type: biochemical; settings: C. albicans mitochondria; read-out: IC50 ± SD, Complex IV
Chain of respiratory chain complex IV (Candida albicans, UniProt P0C8K9+Q9B1P9+Q9B8D8) (P0C8K9 whole entry): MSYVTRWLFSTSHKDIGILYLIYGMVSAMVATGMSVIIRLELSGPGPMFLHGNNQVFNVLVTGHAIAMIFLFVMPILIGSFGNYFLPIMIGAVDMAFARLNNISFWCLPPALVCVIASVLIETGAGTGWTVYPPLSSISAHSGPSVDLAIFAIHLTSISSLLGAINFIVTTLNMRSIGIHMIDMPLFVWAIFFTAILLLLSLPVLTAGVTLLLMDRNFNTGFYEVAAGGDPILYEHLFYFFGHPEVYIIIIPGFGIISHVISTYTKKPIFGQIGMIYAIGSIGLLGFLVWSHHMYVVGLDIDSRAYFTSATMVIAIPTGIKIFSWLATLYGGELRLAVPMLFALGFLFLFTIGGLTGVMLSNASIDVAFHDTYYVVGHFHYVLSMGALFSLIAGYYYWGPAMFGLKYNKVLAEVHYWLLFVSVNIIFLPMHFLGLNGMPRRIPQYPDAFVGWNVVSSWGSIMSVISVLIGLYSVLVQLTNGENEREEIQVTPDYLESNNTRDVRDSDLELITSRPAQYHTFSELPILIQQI
Chain of respiratory chain complex IV (Candida albicans, UniProt P0C8K9+Q9B1P9+Q9B8D8) (Q9B8D8 whole entry): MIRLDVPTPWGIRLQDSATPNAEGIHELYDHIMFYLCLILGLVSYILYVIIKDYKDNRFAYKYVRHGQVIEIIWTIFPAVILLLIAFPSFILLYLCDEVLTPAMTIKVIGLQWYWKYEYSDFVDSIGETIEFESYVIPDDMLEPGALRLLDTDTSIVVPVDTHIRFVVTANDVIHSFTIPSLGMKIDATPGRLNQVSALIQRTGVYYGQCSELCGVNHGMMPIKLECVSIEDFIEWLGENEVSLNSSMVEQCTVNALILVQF
Chain of respiratory chain complex IV (Candida albicans, UniProt P0C8K9+Q9B1P9+Q9B8D8) (Q9B1P9 whole entry): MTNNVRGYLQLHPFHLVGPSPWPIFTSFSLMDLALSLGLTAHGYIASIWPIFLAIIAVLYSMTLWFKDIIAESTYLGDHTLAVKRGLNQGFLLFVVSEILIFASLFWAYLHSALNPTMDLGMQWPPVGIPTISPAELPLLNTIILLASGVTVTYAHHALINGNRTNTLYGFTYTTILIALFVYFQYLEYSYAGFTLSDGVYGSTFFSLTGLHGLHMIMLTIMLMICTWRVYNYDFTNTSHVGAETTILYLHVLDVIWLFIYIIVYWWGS

[7] = target: respiratory chain complex I (Bos taurus, UniProt P03887+P17694+P42026); assay: MitoCheck complex I activity assay, bovine heart mitochondria; assay type: biochemical
Procedure: The enzymatic activities of bovine heart mitochondrial respiratory chain complexes were determined using MitoCheck complex I, complex II/III, and complex IV activity assay kits (Cayman Chemical, Ann Arbor, MI, USA). Bovine heart mitochondria from these kits were used for experiments. The experiments were performed following the manufacturer’s instructions. In the experiments, 2 μM rotenone, 1 mM KCN, and both 1 mM TTFA and 5 μg/ml antimycin A served as positive controls for the inhibition of complex I, complex IV, and complexes II plus III, respectively.
In all experiments, the reaction rate of each enzyme was determined by calculating the slope of the linear portion of the curve. Complex I activity in C. albicans was calculated by subtracting the rotenone-insensitive enzymatic activity (with 10 μM rotenone) from the NADH dehydrogenase activity (without rotenone).
OCRs in isolated mitochondria and intracellular ATP levels were compared between the control and treatment groups using the parametric Dunnett’s multiple-comparison test. P values of <0.05 (comparison of multiple groups) were considered statistically significant. IC50 values were determined from dose-response curves compared with untreated control samples using a four-parameter logistic curve-fitting analysis. Data were analyzed using JMP 13.0 (SAS Institute Japan Ltd., Tokyo, Japan).

[8] = target: respiratory chain complex II + III (Bos taurus, UniProt P00125+P00157+P13272); assay: MitoCheck complex II/III activity assay, bovine heart mitochondria; assay type: biochemical
[9] = target: respiratory chain complex IV (Bos taurus, UniProt P00396+P00415+P68530); assay: MitoCheck complex IV activity assay, bovine heart mitochondria; assay type: biochemical
[10] = system: Saccharomyces cerevisiae; assay: Intracellular ATP levels in yeast (luminescence assay); assay type: cell-based
Procedure: Intracellular ATP levels were measured using a previously described method with the following modifications ([25]). S. cerevisiae was grown overnight in a semisynthetic medium (per liter: 20 g of lactate, 0.5 g of glucose, 3 g of yeast extract, 1 g of KH2PO4, 1 g of NH4Cl, 0.5 g of CaCl2·2H2O, 0.5 g of NaCl, and 0.6 g of MgCl2·6H2O; adjusted to pH 5.5 with NaOH). The cells were harvested during the logarithmic-growth phase by centrifugation (3,000 × g at room temperature for 5 min). They were then washed and resuspended in distilled water. The suspension was diluted in a semisynthetic medium to yield 1 × 10^6 cells/ml. After 5 min of incubation at 30°C, T-2307 and antimycin A were added to the suspension. Further, the cells were incubated for 8 h at 30°C. Subsequently, the cells were collected by centrifugation (4,200 × g at 4°C for 5 min). After washes performed with phosphate-buffered saline (PBS; pH 7.2), the cells were resuspended in PBS and diluted to yield 1 × 10^6 cells/ml. ATP levels were measured using the BacTiter-Glo microbial cell viability assay (Promega, Madison, WI, USA), following the manufacturer’s instructions. Luminescence was measured using a microplate reader POLARstar Optima (BMG Labtech GmbH). To determine the viable cell counts, the cell suspension was diluted with PBS and spread on YPD agar. After a 2-day incubation at 30°C, colonies were counted. The intracellular ATP level is expressed as relative light units (RLU)/CFU.

[11] = system: S. cerevisiae cells; assay: Accumulation of T-2307 in S. cerevisiae cells; assay type: cell-based, Saccharomyces cerevisiae
[12] = system: S. cerevisiae; settings: cited from earlier work
[13] = system: C. albicans cells; settings: cited from earlier work
[14] = system: rat liver mitochondria; set-up: method as in PMID 22948882; settings: cited from earlier work

Molecule `N=C(N)c1ccc(OCCCC2CCN(CCCOc3ccc(C(=N)N)cc3)CC2)cc1` [T-2307] has an IC50 [1] of 755 ± 73 µM, an IC50 [2] of 271 ± 37 µM and an IC50 [3] of 149 ± 23 µM. For the same molecule, the IC50 [4] was 344 ± 32 µM, the IC50 [5] was 2000 µM and the IC50 [6] was 225 ± 23 µM. For the same molecule, the IC50 ([7]; bovine heart mitochondria, read-out: IC50 ± SD, Complex I) was greater than 3000 µM, the remaining activity at 3000 µM ([7]; bovine, read-out: remaining enzymatic activity of complex I) was 68% and the “IC50 for complexes II plus III in bovine heart mitochondria relative to yeast mitochondria” value [8] was greater than 10 fold. The IC50 ([8]; bovine heart mitochondria, read-out: IC50 ± SD, Complex II + III) was greater than 3000 µM, the remaining activity at 3000 µM ([8]; read-out: remaining enzymatic activity of complexes II plus III) was 93% and the “IC50 for complex IV in bovine heart mitochondria relative to yeast mitochondria” value [9] was greater than 10 fold. The IC50 ([9]; bovine heart mitochondria, read-out: IC50 ± SD, Complex IV) was greater than 3000 µM, the remaining activity at 3000 µM ([9]; read-out: remaining enzymatic activity of complex IV) was 92% and the “concentration that significantly decreased intracellular ATP levels” value [10] was no less than 0.01 µM. The “reduction in intracellular ATP level” value [10] was roughly 80%, the “reduction in intracellular ATP levels” value [10] was greater than 50% and the “concentration in cells relative to extracellular medium” value [11] was “approximately 6,000 fold”. For the same molecule, the MIC reported previously [12] was 2 nM (≈ 0.875 ng/mL), the “concentration in cells relative to extracellular medium” value [13] was > 3,000 fold and the “effect on the MMP and on respiration in rat liver mitochondria” value [14] was “little effect”.
